Data reported in US20260130933A1, “PHARMACEUTICAL COMPOSITION FOR PREVENTION OR TREATMENT OF NEPHROPATHY AND/OR DIABETES MELLITUS, COMPRISING ENAVOGLIFLOZIN” (DAEWOONG PHARMACEUTICAL CO., LTD., priority 2022, published 2026).

Assay: Example 2: phase 3 trial, enavogliflozin 0.3 mg vs dapagliflozin 10 mg once a day for 24 weeks added to metformin in patients with type 2 diabetes (same efficacy, exploratory and safety endpoints)
Type: in vivo, human
Experimental: Subjects who met the inclusion/exclusion criteria were administered a placebo of the clinical trial drug under single-blind (subject blinding) conditions during a 2-week run-in period while continuing to receive metformin. […] The randomized subjects were administered two tablets of the clinical trial drug for each administration group once a day, and then visited the institution at weeks 6, 12, 18, and 24 during the 24-week administration period to conduct efficacy and safety evaluations.
• 1. Change in HbA1c at week 24 after administration of clinical trial drug compared to Visit 2 (randomization)
• 1. Change in HbA1c at each time point of weeks 6, 12, and 18 after administration of clinical trial drug compared to Visit 2 (randomization) • 2. Change in FPG at each time point of weeks 6, 12, 18, and 24 after administration of clinical trial drug compared to Visit 2 (randomization) • 3. Proportion of subjects achieving HbA1c<7% at each time point of weeks 6, 12, 18, and 24 after administration of clinical trial drug • 4. Proportion of subjects achieving HbA1c<6.5% at each time point of weeks 6, 12, 18, and 24 after administration of clinical trial drug • 5. Proportion of subjects achieving therapeutic response (HbA1c change (HbA1c at Visit 2-HbA1c at each evaluation time point)>0.5% or HbA1c<7% at each evaluation time point compared to Visit 2 (randomization)) at each time point of weeks 6, 12, 18 and 24 after administration of clinical trial drug
• 1. Change in fasting c-peptide at each time point of weeks 6, 12, 18, and 24 after administration of clinical trial drug compared to Visit 2 (randomization) • 2. Change in body weight at each time point of weeks 6, 12, 18, and 24 after administration of clinical trial drug compared to Visit 2 (randomization) • 3. Change in fasting lipid concentration (total cholesterol, LDL-C, HDL-C, and triglycerides) at each time point of weeks 6, 12, 18, and 24 after administration of clinical trial drug compared to Visit 2 (randomization) • 4. Changes in systolic or diastolic blood pressure at each time point of weeks 6, 12, 18, and 24 after administration of clinical trial drug compared to Visit 2 (randomization) • 5. Changes in β-cell function and insulin resistance measured by HOMA-β and HOMA-IR at each time point of weeks 6, 12, 18, and 24 after administration of clinical trial drug compared to Visit 2 (randomization) • 6. Changes in renal function-related indicators (UACR, UGCR) measured by UACR at each time point of weeks 6, 12, 18, and 24 after administration of clinical trial drug compared to Visit 2 (randomization) • 7. Changes in obesity-related indicators (adiponectin, leptin) at each time point of weeks 6, 12, 18, and 24 after administration of clinical trial drug compared to Visit 2 (randomization)

[1] = week 18, per-protocol set, enavogliflozin 0.3 mg, dapagliflozin 10 mg
[2] = week 24, listed as enavogliflozin
[3] = week 24, modified per-protocol set 1, enavogliflozin 0.3 mg, dapagliflozin 10 mg
[4] = week 24, per-protocol set, enavogliflozin 0.3 mg vs dapagliflozin 10 mg
[5] = week 24, per-protocol set, enavogliflozin 0.3 mg, dapagliflozin 10 mg

With `OC[C@H]1O[C@@H](c2cc(Cc3ccc(C4CC4)cc3)c(Cl)c3c2CCO3)[C@H](O)[C@@H](O)[C@@H]1O` [Enavogliflozin, (2S,3R,4R,5S,6R)-2-(7-chloro-6 (4-cyclopropylbenzyl)-2,3-dihydrobenzofuran-4-yl)-6-(hydroxymethyl)tetrahydro-2H-pyran-3,4,5-triol] the “Subjects achieving HbA1c target of <6.5%, (%)” value [1] was “(9.89) %”, the “Subjects achieving therapeutic glycemic response, (%)” value [1] was “(80.22) %” and the “body weight, Mean (SD)” value [1] was 66.72(11.26) kg. For the same compound, the “body weight, Median” value [1] was 64.30 kg, the “fasting c-peptide, Mean (SD)” value [1] was 0.65(0.24) ng/mL and the “fasting c-peptide, Median” value [1] was 0.61 ng/mL. The “FPG change from baseline, LS mean (SE)” value (week 24) was −32.53(1.76) mg/dL, the “HOMA-IR change from baseline, LS mean (SE)” value (week 24) was −1.85(0.13) and the “HOMA-β change from baseline, LS mean (SE)” value (week 24) was 6.94(3.17). The “HbA1c change from baseline, LS mean (SE)” value (week 24) was −0.80 % p, the “HbA1c change from baseline, Mean (SD)” value (week 24) was −0.78 % p and the “HbA1c, Mean” value (week 24) was 6.98%. The “LDL-C change from baseline, LS mean (SE)” value (week 24) was 1.64(1.92) mg/dL, the “Subjects achieving HbA1c target of <7%” value (week 24) was “(61.05) %” and the “Subjects achieving HbA1c<6.5%” value (week 24) was 13.68%. The “Subjects achieving therapeutic response (HbA1c change >0.5% or HbA1c<7%)” value (week 24) was 78.95%, the “UACR change from baseline, LS mean (SE)” value (week 24) was −24.29(3.38) g/kg and the “UGCR change from baseline, LS mean (SE)” value (week 24) was 60.48(2.12) mg/mg. The “diastolic blood pressure change from baseline, LS mean (SE)” value (week 24) was −5.41(0.65) mmHg, the “fasting c-peptide change from baseline, LS mean (SE)” value (week 24) was −0.10(0.16) ng/ml and the “leptin change from baseline, LS mean (SE)” value (week 24) was −2.40(0.51) ng/mL. For the same compound, the “FPG change from baseline, LS mean difference” value (week 24, vs dapagliflozin) was -3.38 mg/dL, the “HDL-C change from baseline, LS mean difference” value (week 24, vs dapagliflozin) was -0.14 mg/dL and the “HOMA-IR change from baseline, LS mean difference” value (week 24, vs dapagliflozin) was −0.53. For the same compound, the “HOMA-β change from baseline, LS mean difference” value (week 24, vs dapagliflozin) was −4.99, the “HbA1c change from baseline, LS mean difference” value (week 24, vs dapagliflozin) was −0.04 % p and the “LDL-C change from baseline, LS mean difference” value (week 24, vs dapagliflozin) was 0.71 mg/dL. For the same compound, the “Odds ratio for achieving HbA1c<6.5%” value (week 24, vs dapagliflozin) was 0.40, the “Odds ratio for achieving HbA1c<7%” value (week 24, vs dapagliflozin) was 0.97 and the “Odds ratio for achieving therapeutic response” value (week 24, vs dapagliflozin) was 1.30. For the same compound, the “UACR change from baseline, LS mean difference” value (week 24, vs dapagliflozin) was −6.93, the “UGCR change from baseline, LS mean difference” value (week 24, vs dapagliflozin) was 15.54 mg/mg and the “body weight change from baseline, LS mean difference” value (week 24, vs dapagliflozin) was -0.18 kg. The “diastolic blood pressure change from baseline, LS mean difference” value (week 24, vs dapagliflozin) was −1.15 mmHg, the “fasting c-peptide change from baseline, LS mean difference” value (week 24, vs dapagliflozin) was -0.06 ng/mL and the “leptin change from baseline, LS mean difference” value (week 24, vs dapagliflozin) was -1.12 ng/mL. The “systolic blood pressure change from baseline, LS mean difference” value (week 24, vs dapagliflozin) was 0.63 mmHg, the “total cholesterol change from baseline, LS mean difference” value (week 24, vs dapagliflozin) was 2.40 mg/dL and the “triglyceride change from baseline, LS mean difference” value (week 24, vs dapagliflozin) was 1.63 mg/dL. For the same compound, the “HbA1c change from baseline, LS mean (SE)” value [2] was −0.80(0.06) % p, the “HbA1c change from baseline, Mean (SD)” value [2] was −0.78(0.73) % p and the “Subjects achieving HbA1c target of <7%” value [2] was 61.05%. The “Change from baseline in total cholesterol, ANCOVA LS mean difference” value (week 24, modified per-protocol set 1, enavogliflozin 0.3 mg vs dapagliflozin 10 mg) was 2.40 mg/dL, the “Change from baseline in Total cholesterol, ANCOVA LS mean (SE)” value [3] was 9.13(2.22) mg/dL and the “Change from baseline in Total cholesterol, Mean (SD)” value [3] was 7.99(20.78) mg/dL. For the same compound, the “Change from baseline in total cholesterol, Median” value [3] was 11.00 mg/dL, the “fasting Total cholesterol, Mean (SD)” value [3] was 159.42(32.17) mg/dL and the “fasting Total cholesterol, Median” value [3] was 157.00 mg/dL. For the same compound, the “Change from baseline in FPG, ANCOVA LS mean difference” value [4] was -3.38 mg/dL, the “Change from baseline in body weight, ANCOVA LS mean difference” value [4] was -0.18 kg and the “Change from baseline in fasting c-peptide, ANCOVA LS mean difference” value [4] was -0.06 ng/mL. For the same compound, the “Odds ratio for achieving HbA1c target of <6.5%, logistic regression model” value [4] was 0.40, the “Odds ratio for achieving therapeutic glycemic response, logistic regression model” value [4] was 1.30 and the “Change from baseline in FPG, ANCOVA LS mean (SE)” value [5] was -32.53 mg/dL. The “Change from baseline in FPG, Mean (SD)” value [5] was -31.77 mg/dL, the “Change from baseline in FPG, Median” value [5] was -31.00 mg/dL and the “Change from baseline in body weight, ANCOVA LS mean (SE)” value [5] was −3.77(0.33) kg. The “Change from baseline in body weight, Mean (SD)” value [5] was −3.78(3.77) kg, the “Change from baseline in body weight, Median” value [5] was -3.60 kg and the “Change from baseline in fasting c-peptide, ANCOVA LS mean (SE)” value [5] was −0.10(0.02) ng/mL. For the same compound, the “Change from baseline in fasting c-peptide, Mean (SD)” value [5] was −0.10(0.16) ng/mL, the “Change from baseline in fasting c-peptide, Median” value [5] was -0.07 ng/mL and the “FPG, Mean (SD)” value [5] was 113.58 mg/dL. The “FPG, Median” value [5] was 113.00 mg/dL, the “Subjects achieving HbA1c target of <6.5%, (%)” value [5] was “(13.68) %” and the “Subjects achieving therapeutic glycemic response, (%)” value [5] was “(78.95) %”. The “body weight, Mean (SD)” value [5] was 66.39(10.90) kg, the “body weight, Median” value [5] was 64.40 kg and the “fasting c-peptide, Mean (SD)” value [5] was 0.62(0.22) ng/mL. The “fasting c-peptide, Median” value [5] was 0.56 ng/mL.
